The record followed here is patent US8183279B2, “1,3-dihydroisoindole derivatives” (Merck Patent Gesellschaft Mit Beschrankter Haftung, priority 2007, dated 2012).

Each structure is given as a SMILES string. pIC50: −log10 of the molar value.

This test concerns the target T1, Recombinant human HSP90α (Homo sapiens, UniProt P07900).
T1 construct: host or cells: E. coli
The test can be described thus: HSP90 inhibition, [3H]17AAG radioligand filter binding test. To be noted: competition with 0.08 μM [3H]17AAG, HSP90 1.5 μg/assay, 22° C., 30 min. An excerpt: The binding of geldanamycin or 17-allylamino-17-demethoxygeldanamycin (17AAG) to HSP90 and competitive inhibition thereof can be utilised in order to determine the inhibitory activity of the compounds according to the invention (Carreras et al. 2003, Chiosis et al. 2002).
In the specific case, a radioligand filter binding test is used. The radioligand used here is tritium-labelled 17-allylaminogeldanamycin,
[3H]17AAG. This filter binding test allows a targeted search for inhibitors which interfere with the ATP binding site.
Recombinant human HSP90α(E. coli expressed, 95% purity);
[3H]17AAG (17-allylaminogeldanamycin, [allylamino-2,3-^3H. Specific activity: 1.11×10^12 Bq/mmol (Moravek, MT-1717);
HEPES filter buffer (50 mM HEPES, pH 7.0, 5 mM MgCl2, BSA 0.01%) Multiscreen FB (1 μm) filter plate (Millipore, MAFBNOB 50).
The 96-well microtitre filter plates are firstly irrigated and coated with 0.1% of polyethylenimine.
The test is carried out under the following conditions:
Reaction temperature 22° C.
Reaction time: 30 min., shaking at 800 rpm
50 mM HEPES HCl, pH 7.0, 5 mM MgCl2, 0.01% (w/v) of BSA
At the end of the reaction, the supernatant in the filter plate is removed by suction with the aid of a vacuum manifold (Multiscreen Separation System, Millipore), and the filter is washed twice.
The filter plates are then measured in a beta counter (Microbeta, Wallac) with scintillator (Microscint 20, Packard).
“% of control” is determined from the “counts per minutes” values, and the IC-50 value of a compound is calculated therefrom.
Regarding `CCCCN(C)C(=O)c1cc(C(=O)N2Cc3ccc(OCCO)cc3C2)c(O)cc1O` [Compound A34, N-Butyl-2,4-dihydroxy-5-[5-(2-hydroxyethoxy)-1,3-dihydroisoindole-2-carbonyl]-N-methylbenzamide], the negative-log IC50 (pIC50) (in general, −log10 of the IC50, conventionally taken in molar units) is 6.00 to 8.00.
As to `CCCCN(C)C(=O)c1cc(C(=O)N2Cc3ccc(OCCNC)cc3C2)c(O)cc1O` [Compound A35, N-Butyl-2,4-dihydroxy-N-methyl-5-[5-(2-methylaminoethoxy)-1,3-dihydroisoindole-2-carbonyl]benzamide], the pIC50 was 6.00 to 8.00.
Regarding `CNCCOc1ccc2c(c1)CN(C(=O)c1cc(C(=O)N(C)Cc3ccc(C)s3)c(O)cc1O)C2` [Compound A48, 2,4-Dihydroxy-N-methyl-5-[5-(2-methylaminoethoxy)-1,3-dihydroisoindole-2-carbonyl]-N-(5-methylthiophen-2-ylmethyl)benzamide], the pIC50 is 6.00 to 8.00.
As to `CCCCN(C)C(=O)c1cc(C(=O)N2Cc3ccc(OCCN4CCNCC4)cc3C2)c(O)cc1O` [Compound A7], the pIC50 was 6.00 to 8.00.
On to `CCCCN(C)C(=O)c1cc(C(=O)N2Cc3ccc(OCCCC#N)cc3C2)c(O)cc1O` [Compound A33, N-Butyl-5-[5-(3-cyanopropoxy)-1,3-dihydroisoindole-2-carbonyl]-2,4-dihydroxy-N-methylbenzamide], for which the negative-log IC50 (pIC50) is 6.00 to 8.00.
With `CCCCN(C)C(=O)c1cc(C(=O)N2Cc3ccc(C(=O)OC)cc3C2)c(O)cc1O` [Compound A39, Methyl 2-[5-(butylmethylcarbamoyl)-2,4-dihydroxybenzoyl]-2,3-dihydro-1H-isoindole-5-carboxylate], the negative-log IC50 (pIC50) was 6.00 to 8.00.
As for `CCCCN(C)C(=O)c1cc(C(=O)N2Cc3ccc(OCCN4CCCCC4)cc3C2)c(O)cc1O` [Compound A8], the negative-log IC50 (pIC50) was 6.00 to 8.00.
With `CNCCOc1ccc2c(c1)CN(C(=O)c1cc(C(=O)N(C)Cc3ccco3)c(O)cc1O)C2` [Compound A49, N-Furan-2-ylmethyl-2,4-dihydroxy-N-methyl-5-[5-(2-methylaminoethoxy)-1,3-dihydroisoindole-2-carbonyl]benzamide] the figure was 6.00 to 8.00; with `CN(C)CCOc1ccc2c(c1)CN(C(=O)c1cc(C(=O)N(C)Cc3ccccc3)c(O)cc1O)C2` [Compound A45, N-Benzyl-5-[5-(2-dimethylaminoethoxy)-1,3-dihydroisoindole-2-carbonyl]-2,4-dihydroxy-N-methylbenzamide], 6.00 to 8.00.
Then `CCCCN(C)C(=O)c1cc(C(=O)N2Cc3ccc(OCCN(C)CC)cc3C2)c(O)cc1O` [Compound A40, N-Butyl-5-{5-[2-(ethylmethylamino)ethoxy]-1,3-dihydroisoindole-2-carbonyl}-2,4-dihydroxy-N-methylbenzamide], with 6.00 to 8.00; and `CCCCN(C)C(=O)c1cc(C(=O)N2Cc3ccc(OCC(N)=O)cc3C2)c(O)cc1O` [Compound A32, N-Butyl-5-(5-carbamoylmethoxy-1,3-dihydroisoindole-2-carbonyl)-2,4-dihydroxy-N-methylbenzamide], with 6.00 to 8.00.
Consider `CCCCN(C)C(=O)c1cc(C(=O)N2Cc3ccc(-c4ccccc4)cc3C2)c(O)cc1O` [Compound A38, N-Butyl-2,4-dihydroxy-N-methyl-5-(5-phenyl-1,3-dihydroisoindole-2-carbonyl)benzamide], for which the pIC50 is 6.00 to 8.00.
In the case of `CCCCN(C)C(=O)c1cc(C(=O)N2Cc3ccc(OCCCNC)cc3C2)c(O)cc1O` [Compound A47, N-Butyl-2,4-dihydroxy-N-methyl-5-[5-(3-methylaminopropoxy)-1,3-dihydroisoindole-2-carbonyl]benzamide], the negative-log IC50 (pIC50) was 6.00 to 8.00.
On to `CCCCN(C)C(=O)c1cc(C(=O)N2Cc3ccc(OCCN(C)C)cc3C2)c(O)cc1O` [Compound A3, N-butyl-5-[5-(2-dimethylaminoethoxy)-1,3-dihydroisoindole-2-carbonyl]-2,4-dihydroxy-N-methylbenzamide], for which the pIC50 is 6.00 to 8.00.
Regarding `CCCCN(C)C(=O)c1cc(C(=O)N2Cc3ccccc3C2)c(O)cc1O` [Compound A2, N-butyl-2,4-dihydroxy-5-(1,3-dihydroisoindole-2-carbonyl)-N-methylbenzamide], the negative-log IC50 (pIC50) is 6.00 to 8.00.
On to `CCCCN(C)C(=O)c1cc(C(=O)N2Cc3ccc(C(=O)N(C)C)cc3C2)c(O)cc1O` [Compound A41, N,N'-Dimethyl-2-[5-(butylmethylcarbamoyl)-2,4-dihydroxybenzoyl]-2,3-dihydro-1H-isoindole-5-carboxamide], for which the pIC50 was 6.00 to 8.00.
For the compound `CCCCN(C)C(=O)c1cc(C(=O)N2Cc3ccc(OCCN4CCOCC4)cc3C2)c(O)cc1O` [Compound A6], the negative logarithm of the IC50 (pIC50) was 6.00 to 8.00.
`CCCCN(C)C(=O)c1cc(C(=O)N2Cc3ccc(C(N)=O)cc3C2)c(O)cc1O` [Compound A42]: the negative-log IC50 (pIC50) was 6.00 to 8.00.
With `CCCCN(C)C(=O)c1cc(C(=O)N2Cc3ccc(O)cc3C2)c(O)cc1O` [Compound A1, N-butyl-2,4-dihydroxy-5-(5-hydroxy-1,3-dihydroisoindole-2-carbonyl)-N-methylbenzamide], the negative-log IC50 (pIC50) is 6.00 to 8.00.
In the case of `CN(C)CCOc1ccc2c(c1)CN(C(=O)c1cc(C(=O)N(C)Cc3ccco3)c(O)cc1O)C2` [Compound A44, 5-[5-(2-Dimethylaminoethoxy)-1,3-dihydroisoindole-2-carbonyl]-N-furan-2-ylmethyl-2,4-dihydroxy-N-methylbenzamide], the pIC50 was 6.00 to 8.00.
For `CN(C)CCOc1ccc2c(c1)CN(C(=O)c1cc(C(=O)N3Cc4ccccc4C3)c(O)cc1O)C2` [Compound A46, [5-(1,3-Dihydroisoindole-2-carbonyl)-2,4-dihydroxyphenyl]-[5-(2-dimethylaminoethoxy)-1,3-dihydroisoindol-2-yl]methanone], the pIC50 is 6.00 to 8.00.
With `Cc1ccc(CN(C)C(=O)c2cc(C(=O)N3Cc4ccc(OCCN(C)C)cc4C3)c(O)cc2O)s1` [Compound A43, 5-[5-(2-Dimethylaminoethoxy)-1,3-dihydroisoindole-2-carbonyl]-2,4-dihydroxy-N-methyl-N-(5-methylthiophen-2-ylmethyl)benzamide] the figure was 6.00 to 8.00.
